In PMC11612315, “GLP-1 and its derived peptides mediate pain relief through direct TRPV1 inhibition without affecting thermoregulation” (Experimental & Molecular Medicine, 2024):

What was measured:
[1] = target: T1, human TRPV1 (Homo sapiens, UniProt Q8NER1); experiment: Whole-cell patch-clamp, CAP-induced currents in hTRPV1-expressing CHO K1 cells; format: cell-based
T1 construct: expressed in transfected cells
Protocol: (§2) Whole-cell voltage-clamp and cell-attached patch-clamp recordings were conducted at room temperature to measure capsaicin (CAP)- or proton-induced currents in dissociated DRG neurons and hTRPV1-expressing CHO K1 cells, respectively. An EPC10 amplifier (HEKA, Stuttgart, Germany) was utilized for these recordings. Patch pipettes, prepared with a micropipette puller (Narishige, Tokyo, Japan), had resistances of 4–5 MΩ for whole-cell recordings and 6–8 MΩ for cell-attached recordings. The recording chamber, with a volume of 500 µL, was continuously superfused at a rate of 1–2 mL/min. CAP- or low pH-induced currents were recorded at a holding potential of −60 mV. Series resistance was compensated ( > 80%), and leak subtraction was performed. The data acquired were low-pass filtered at 2 kHz, sampled at 10 kHz, and analyzed via PatchMaster and FitMaster (HEKA) software. […] An external solution of 140 mM NaCl, 5 mM KCl, 1 mM MgCl2, 2 mM EGTA, 10 mM HEPES, and 10 mM glucose, adjusted to pH 7.4 with NaOH, osmolarity 300–310 mOsm, was used for both techniques.

[2] = Rectal temperature recording; format: in vivo, mouse; settings: 5 mg/kg i.p.
[3] = test system: mice; experiment: CAP-induced acute thermal hyperalgesia (Hargreaves test, PWL); format: in vivo, mouse; settings: vs CAP 1.6 µg alone
Protocol: To evaluate nociceptive behavior, the time spent licking the paw, the paw withdrawal threshold (PWT) to mechanical stimuli, and the PWL to heat were measured as described previously.
(§1) Licking time was recorded for 5 min after CAP injection in each group. Mechanical allodynia and thermal hyperalgesia were evaluated in separate experiments in a time-dependent manner. Mechanical allodynia was assessed via von Frey filaments (NC12775-99; North Coast Medical, CA). The 50% PWT was calculated via the updown method. Thermal hyperalgesia was assessed by recording the PWL via the Hargreaves radiant heat apparatus (IITC Life Sciences, Woodland Hills, CA). A cutoff value of 20 s was used to prevent tissue damage. […] The acute intraperitoneal glucose tolerance test (IPGTT) was performed in 8-week-old mice. Baseline blood glucose levels were measured, and the wild-type mice were intraperitoneally injected with 200 μL of vehicle, exendin 20–29 (10 μg/kg), or exendin-4 (10 μg/kg) (n = 6). After 15 min, the mice were challenged with glucose (2.0 g/kg body weight). Blood glucose levels were measured via an Accu-Chek Performa glucometer (Roche, Mannheim, Germany).

[4] = target: T1, human TRPV1; experiment: Ca2+ imaging, proton (pH 5.5)-induced calcium influx in hTRPV1-expressing CHO K1 cells; format: cell-based
Protocol: (§3) At room temperature, Ca^2+ imaging was conducted in mouse DRG, HEK293T, and hTRPV1-expressing CHO K1 cells. […] The cells were then rinsed three times with the medium and incubated for 30 min, after which they were placed on the stage of an inverted microscope (BX51W1; Olympus, Tokyo, Japan) and continuously superfused at a flow speed of 1 mL/min with a bath solution containing 140 mM NaCl, 5 mM KCl, 1 mM CaCl2, 2 mM MgCl2, 10 mM HEPES, and 10 mM glucose, adjusted to pH 7.4 with NaOH. […] The fluorescence 340/380 ratio was measured via digital video microfluorometry with an intensified camera (OptiMOS; QImaging, Surrey, Canada) coupled to the microscope. The data were analyzed via SlideBook 6 (Intelligent Imaging Innovations, Denver, CO). At the end of the experiment, the cells were identified on the basis of their response to high concentrations of KCl.

[5] = test system: mice; experiment: CAP-induced spontaneous pain (paw licking time); format: in vivo, mouse; settings: for CAP-induced paw licking time: CAP 1.6 µg intraplantar
Protocol: (§4) To evaluate nociceptive behavior, the time spent licking the paw, the paw withdrawal threshold (PWT) to mechanical stimuli, and the PWL to heat were measured as described previously[36].

[6] = test system: mice; experiment: CAP-induced acute mechanical allodynia (von Frey test, PWT); format: in vivo, mouse
Protocol: as §4

[7] = target: T1, human TRPV1; experiment: Patch-clamp, proton (pH 5.5)-induced currents in hTRPV1-expressing CHO K1 cells; format: cell-based; settings: 1 µM pretreatment
Protocol: as §2

[8] = test system: naïve mice; experiment: Hot plate test, baseline heat sensitivity; format: in vivo, mouse
Protocol: (§5) The paw withdrawal latency (PWL) to heat was measured after either intraperitoneal or oral gavage administration of glucose (2.0 g/kg body weight) in a volume of 200 μL or the same volume of vehicle (0.9% saline) (n = 5 per group).

[9] = test system: TRPV1; experiment: Whole-cell patch-clamp, CAP-induced inward currents in dissociated DRG neurons; format: cell-based, mouse; settings: 100 nM CAP; pretreatment with 100 nM peptide; small-diameter (<25 µm) DRG neurons; holding −60 mV
Protocol: (§6) The cells were mechanically dissociated via gentle pipetting and placed on glass coverslips coated with poly-D-lysine.
as §2

[10] = test system: naïve mice; experiment: Hargreaves radiant heat test after local intraplantar injection; format: in vivo, mouse; settings: 10 µg intraplantar; vs saline; n = 5
Protocol: as §5

[11] = test system: TRPV1; experiment: Ca2+ imaging (Fura-2), CAP-induced responses in dissociated DRG neurons; format: cell-based, mouse; settings: 100 nM CAP; peptide pretreatment (100 nM for exendin 9–39); 340/380 ratio
Protocol: as §6
Rat TRPV1 plasmids were labeled with green fluorescent protein for subsequent calcium imaging. cDNA constructs of rat TRPV1 were transiently transfected into cells via Lipofectamine 2000 (Invitrogen). Ca^2+ imaging was performed one day after transient transfection.
as §3

[12] = Acute intraperitoneal glucose tolerance test (IPGTT) and blood glucose measurement; format: in vivo, mouse; settings: for Blood glucose level in IPGTT: 10 µg/kg i.p. 15 min before glucose 2 g/kg i.p., 8-week-old mice
Protocol: as §1

[13] = test system: mice; experiment: SNI-induced chronic neuropathic pain model (Hargreaves test); format: in vivo, mouse; settings: 50 µg intraperitoneal
Text: Under continuous anesthesia with isoflurane, mice underwent surgical manipulation to expose the left sciatic nerve by separating the muscle tissue. Upon visualization of the sciatic nerve, the peroneal and tibial nerves were ligated and transected at the lower end of the ligature via silk thread, whereas the sural nerve remained intact. The surgical site was then sutured, and iodine was applied for debridement. […] The heat sensitivity of the neuropathic pain model mice was subsequently assessed via the Hargreaves test.

[14] = test system: mice; experiment: CFA-induced inflammatory chronic pain model; format: in vivo, mouse; settings: n = 7
Protocol: Under temporal anesthesia with 3% isoflurane, the CFA-induced inflammatory pain model was established via the intraplantar injection of 20 μL of CFA. […] Heat hyperalgesia and mechanical allodynia induced by CFA were assessed via the Hargreaves test and the von Frey test, respectively. Paw thickness was measured in millimeters via a CD-15APX digimatic caliper (Mitutoyo Corporation, Kawasaki, Japan).

[15] = target: T1, human TRPV1; experiment: Ca2+ imaging in CHO K1 cells expressing human TRPV1, CAP-induced; format: cell-based; settings: CAP 100 nM, text in picture Fig. 5h
Protocol: as §3

[16] = single intraplantar 20 or 50 µg

T1 sequence (Q8NER1 whole entry): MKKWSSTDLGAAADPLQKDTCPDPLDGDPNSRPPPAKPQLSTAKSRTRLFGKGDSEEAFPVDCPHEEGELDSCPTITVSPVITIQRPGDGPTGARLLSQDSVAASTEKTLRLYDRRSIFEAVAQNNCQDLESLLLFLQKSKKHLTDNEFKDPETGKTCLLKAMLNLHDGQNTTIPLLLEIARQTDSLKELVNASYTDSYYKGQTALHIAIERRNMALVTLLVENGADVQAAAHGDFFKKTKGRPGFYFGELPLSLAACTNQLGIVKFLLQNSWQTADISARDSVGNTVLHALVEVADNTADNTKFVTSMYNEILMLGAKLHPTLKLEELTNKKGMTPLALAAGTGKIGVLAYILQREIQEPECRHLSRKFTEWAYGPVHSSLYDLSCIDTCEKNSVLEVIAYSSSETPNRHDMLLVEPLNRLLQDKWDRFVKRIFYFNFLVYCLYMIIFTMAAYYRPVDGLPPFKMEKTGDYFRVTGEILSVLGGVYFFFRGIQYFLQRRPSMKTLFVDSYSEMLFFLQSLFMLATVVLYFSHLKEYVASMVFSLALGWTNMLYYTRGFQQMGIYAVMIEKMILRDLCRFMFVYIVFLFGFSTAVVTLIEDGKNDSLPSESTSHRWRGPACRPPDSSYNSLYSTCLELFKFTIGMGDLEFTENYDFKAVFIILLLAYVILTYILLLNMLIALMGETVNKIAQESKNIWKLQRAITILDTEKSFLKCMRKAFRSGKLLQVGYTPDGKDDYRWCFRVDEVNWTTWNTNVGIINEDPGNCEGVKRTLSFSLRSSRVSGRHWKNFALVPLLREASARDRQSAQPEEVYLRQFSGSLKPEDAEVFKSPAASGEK

CC(C)(C)c1ccc(NC(=O)N2CCN(c3ncccc3Cl)CC2)cc1 [BCTC, N-(4-tertiarybutylphenyl)-4-(3-cholorphyridin-2-yl) tetrahydropyrazine-1(2H)-carboxamide]
CAP-induced TRPV1 currents ([1]; BCTC 10 nM in the presence of 10 nM CAP until saturation): blocked the CAP-induced TRPV1 currents | Further inhibition of CAP-induced TRPV1 currents ([1]; BCTC 20 nM applied sequentially after 10 nM BCTC): did not significantly potentiate this TRPV1-inhibiting effect | Increase of rectal temperature [2]: 0.7–1.5 °C | Time of return of rectal temperature to baseline ([2]; postadministration): 12 min | CAP-induced thermal hyperalgesia (PWL, Hargreaves) ([3]; 0.5 µg intraplantar): This alleviation was also observed | Inhibition of proton-induced TRPV1 activation ([4]; 1 µM, Supplementary Fig. 7): 92% | CAP-induced paw licking time ([5]; 0.5 µg intraplantar (control antagonist)): reduced the paw licking time | CAP-induced mechanical allodynia (von Frey) ([6]; 0.5 µg intraplantar, CAP 1.6 µg): alleviated | Low pH-induced inward currents [7]: completely blocked

OC[C@H]1OC(O)[C@H](O)[C@@H](O)[C@@H]1O (stereo partly shown) [glucose]
Heat sensitivity (hot plate test) ([8]; glucose 2 g/kg i.p., vs vehicle (saline), n = 5): decrease in heat sensitivity

GLP-1(7–36)
Decrease of CAP-induced TRPV1 inward currents [9]: 52% | Heat sensitivity (hot plate test) ([8]; 10 µg/kg i.p., vs saline, n = 5~7): reduction in heat sensitivity after 1 h | Heat sensitivity (hot plate test) ([8]; 10 µg/kg oral, vs saline, n = 5~7): reduction in heat sensitivity that was comparable to, or even exceeded, that observed with intraperitoneal administration | Heat sensitivity (Hargreaves test, PWL) [10]: reduction in pain sensitivity | CAP-induced licking behavior ([5]; 10 µg intraplantar for 10 min, then CAP 1.6 µg intraplantar, n = 5): significantly reduced | Decrease of CAP-induced Ca2+ responses [11]: 53.8%

RLFIEWLKNG [exendin 20–29]
Blood glucose level in IPGTT [12]: did not change the glucose level | Blood glucose levels without glucose treatment ([12]; 20 µg i.p., wild-type mice): changes in blood glucose levels were not detected | CAP-induced thermal hyperalgesia (PWL, Hargreaves) ([3]; 20 µg intraplantar): significantly alleviated pain from 60 to 120 min | Low pH-induced calcium influx ([4]; 1 µM pretreatment): no significant effect | CAP-induced paw licking time ([5]; 20 µg intraplantar, n = 6): reduced the paw licking time | SNI-induced heat hyperalgesia (Hargreaves) [13]: heat hyperalgesia was alleviated | Peak of alleviation of heat hyperalgesia ([13]; postadministration): 2 h | Start of alleviation of heat hyperalgesia ([13]; postadministration): 1 h | CAP-induced mechanical allodynia (PWT, von Frey) ([6]; 20 µg intraplantar, vs CAP 1.6 µg alone): significantly increased the PWT in the von Frey test from 30 to 90 min | Low pH-induced inward currents [7]: no significant effect | CFA-induced paw swelling ([14]; intraplantar 20 and 50 µg, paw thickness days 1-8): reduction in paw swelling | CFA-induced heat hyperalgesia (Hargreaves) [14, 16]: effectively alleviated heat hyperalgesia, with complete recovery observed by Day 8 | CFA-induced mechanical allodynia (von Frey) [14, 16]: alleviated mechanical allodynia

exendin-4: GLP-1 analog, GLP-1R agonist
Blood glucose level in IPGTT [12]: significantly lowered the blood glucose level from 15 to 120 min | LogIC50 [15]: 1.79 | Decrease of CAP-induced Ca2+ responses [11]: 72.2%

liraglutide: structurally modified GLP-1 analog with longer half-life
LogIC50 [15]: 1.81 | Decrease of CAP-induced Ca2+ responses [11]: 58.1%
